# Values of other authors as cited in patent US20050226899A1, “Cosmetic mask composition” (priority 2004, published 2005).
# Test system: skin
# Details: lotion, up to 5% by weight retinoic acid
compound,measurement,value
CC1=C(/C=C/C(C)=C/C=C/C(C)=C/C(=O)O)C(C)(C)CCC1 [retinoic acid],irritative phenomena,some treatments had to be interrupted due to the onset of significant irritative phenomena
